How the values were obtained:
Assay type in all cases: in vivo
[1] = tested on: Meloidogyne incognita infective stage juveniles (J2s); experiment: Chemosensory (chemotaxis) assay towards root exudate, M. incognita J2s; conditions: for chemotaxis index (Cl) towards root exudate: M. incognita J2s
Method: Predicted uNLPs from both M. incognita and G. pallida were synthesised by EZBiolab and dissolved into pH adjusted ddH2O to make a 5 mM stock which was aliquoted and stored at −20° C. J2s of both M. incognita and G. pallida were incubated for 24 hours in 200 μl of each peptide in a 24 well plate (SPL Lifesciences, South Korea) at a defined concentration.
A 60 mm Petri dish was divided into two segments, a positive and a negative side, with a 0.5 cm ‘dead zone’ either side of the centre point. The petri dish was filled with 15 ml of 0.25% w/v agar which was allowed to solidify. 3 ml of 0.25% w/v agar slurry in spring water (pH 7, agitated with a magnetic stirrer for several hours to give a smooth consistency) was added to the petri dish and spread evenly over the surface. Root diffusate (attractant) and water only (control) 0.25% agar plugs were embedded in the agar slurry, either side of the assay arena. Root diffusate was collected from 10 tomato plants, aged 3-6 weeks in 1 litre pots, by pouring 500 ml of ddH2O through the soil three times. Diffusate from each plant was combined, filter sterilised and stored at 4° C. for a maximum of 1 month. Root diffusate agar plugs were made by melting 1.25% agar in ddH2O, cooling to 50° C. before mixing with 4 parts of root diffusate. The agar was then allowed to solidify at room temperature. 100 uNLP pre-treated M. incognita or G. pallida J2s were added by pipette to the centre of the plate. J2s which moved out of the ‘dead zone’ after 3 hours were counted and their location (+/−) scored. The distribution of J2s were used to create a chemotaxis index for each plate, which formed one replicate, a total of 10 replicates where completed for each uNLP treatment.

[2] = tested on: Meloidogyne incognita J2s; experiment: B. subtilis and C. reinhardtii plant protection assay, M. incognita; conditions: tomato
Method: Tomato seeds were sterilised with 2.5% NaOCl for 15 minutes, washed 5 times in ddH2O and germinated on 0.5% Murashige and Skoog plates at 23° C. […] Invasion assays were performed by mixing 500 pre-treated M. incognita or G. pallida J2s with agar slurry and a single tomato seedling (2 days post germination) in a 6 well plate. Assays were left at 23° C. for 24 hours in the case of M. incognita and at 18° C. for 24 hours in the case of G. pallida under a 16 hour light and 8 hour darkness cycle. Seedlings were stained using acid fuschin [69] and the number of nematodes within the roots counted.
B. subtilis were grown overnight in LB media containing ampicillin (100 μg/ml) at 37° C. with shaking, and harvested in the log phase of growth determined by measuring OD600nm. Five ml of culture at 0.5 OD was spun down and the pellet mixed with 3 ml of agar slurry and 500 J2s from either G. pallida or M. incognita. C. reinhardtii clones were grown at 23° C. with shaking, cultures in the log phase were measured at OD750 and 5 ml of culture at 0.5 OD was pelleted by centrifugation. C. reinhardtii pellets were mixed with 3 ml of agar slurry and 500 J2s from either G. pallida or M. incognita. Plant invasion assays were performed as described above.
uNLP secretion inserts, and vector pChlamy_3 were digested using Kpnl/Xbal (New England Biolabs, USA), ligated using T4 ligase (New England Biolabs, USA), and cloned into Escherichia coli One Shot® TOP10 chemically competent cells (Life Technologies, USA) following manufacturer's instructions. Ampicillin (Sigma Aldrich, USA) was used to select E. coli containing the pChlamy_3 plasmid, which was subsequently extracted using the High Pure Plasmid Isolation Kit (Roche) and sequenced (Eurofins Genomics, UK) to identify correct clones. C. reinhardtii was transformed by electroporation following manufacturer's instructions (GeneArt® Chlamydomonas Engineering Kit, Life Technologies) and individual colonies grown on TAP-Agar-Hygromycin plates (10 μg/mL) (Sigma Aldrich, USA) at 23° C. Colonies were picked and grown at 23° C. in 100 ml TAP growth media (Invitrogen, USA) with constant orbital agitation. qRT-PCR was performed to identify clones with the highest level of uNLP expression, which were then selected for downstream assays (pChlamy universal FWD: […], nlp-15b REV: CTACTAGTCGAGGCCGGTA; Mi-nlp-9f REV: GAACGGGCGGATGAAGTAG).
uNLP secretion inserts, and vector pBE-S were digested using Xbal/Mlul (New England Biolabs, USA), ligated using T4 ligase (New England Biolabs, USA), and cloned into E. coli One Shot® TOP10 chemically competent cells (Life Technologies, USA) following manufacturer's instructions. […]

[3] = tested on: Steinernema carpocapsae infective juveniles; experiment: S. carpocapsae host-finding assay (non-target nematode); conditions: S. carpocapsae IJs, 100 μM, 24 h; no statistically significant impact; control 0.2315
Method: S. carpocapsae were cultured in Galleria mellonella at 23° C. Infective juveniles (IJs) were collected using a White trap in PBS. Freshly emerged IJs were used for each assay. 100 IJs were incubated for 24 hours in 100 μM of selected uNLPs, and host-finding assays performed as in Morris et al..

## SFDSFTGPGFTGLD [Mi-NLP-15b]
[1]; 100 μM uNLP, 24 h, mean+/-SEM
  chemotaxis index (Cl) towards root exudate: −0.3408+/−0.2207
[1]; Mi-NLP-15b 100 pM, 24 h
  chemotaxis index (Cl) towards root exudate: 0.03117+/−0.1594
[1]; Mi-NLP-15b 1 nM, 24 h
  chemotaxis index (Cl) towards root exudate: −0.07105+/−0.1534
[1]; Mi-NLP-15b 10 nM, 24 h
  chemotaxis index (Cl) towards root exudate: −0.1741+/−0.1724
[1]; Mi-NLP-15b 100 nM, 24 h
  chemotaxis index (Cl) towards root exudate: −0.1195+/−0.1968
[1]; Mi-NLP-15b 1 μM, 24 h
  chemotaxis index (Cl) towards root exudate: −0.1344+/−0.1733
[1]; Mi-NLP-15b 10 μM as printed (last of the series, after 100 pM), 24 h
  chemotaxis index (Cl) towards root exudate: −0.1553+/−0.2642
[1]; Mi-NLP-15b 10 μM, 24 h (dilution series)
  chemotaxis index (Cl) towards root exudate: −0.03579+/−0.1504
[1]; Mi-NLP-15b 100 μM, 24 h (dilution series)
  chemotaxis index (Cl) towards root exudate: −0.3782+/−0.07224
[1]; serial dilution, 24 h exposure
  lowest concentration inhibiting M. incognita chemosensation: 10 pM
[2]; B. subtilis cultures secreting the uNLP
  M. incognita invasion relative to control: 26.63%+/−8.12
[2]; C. reinhardtii cultures secreting the uNLP
  M. incognita invasion relative to untransformed C. reinhardtii: 10.82%+/−6.574
[3]
  insect host-finding index (Cl) towards Galleria mellonella: 0.2225+/−0.043

From patent US20200123208A1, “PEPTIDES AND NEMATICIDAL COMPOSITIONS” (priority 2017, published 2020)
